The NIST ThermoML archive (doi:10.1021/je700260f)

Details: 323.15 K, Liquid, Vibrating tube method

FC(C(F)(F)F)C(F)(F)F [1,1,1,2,3,3,3-heptafluoropropane]
Details | mass density [kg/m3]
24369 kPa | 1441.6
24448 kPa | 1441.9
24476 kPa | 1442
24507 kPa | 1442.1
24535 kPa | 1442.3
24630 kPa | 1442.7
25178 kPa | 1445.1
25221 kPa | 1445.2
25254 kPa | 1445.3
25279 kPa | 1445.5
25317 kPa | 1445.6
25347 kPa | 1445.8
25380 kPa | 1445.9
25479 kPa | 1446.3
25518 kPa | 1446.5
25548 kPa | 1446.5
25582 kPa | 1446.8
25619 kPa | 1447
25648 kPa | 1447.1
25678 kPa | 1447.1
25713 kPa | 1447.3
25743 kPa | 1447.4
25772 kPa | 1447.5
25810 kPa | 1447.7
25835 kPa | 1447.8
25868 kPa | 1447.9
25896 kPa | 1448
25923 kPa | 1448.1
26006 kPa | 1448.7
26035 kPa | 1448.7
26099 kPa | 1449
26134 kPa | 1449.1
26161 kPa | 1449.1
26196 kPa | 1449.4
26255 kPa | 1449.6
26288 kPa | 1449.7
27476 kPa | 1454.6
27515 kPa | 1454.7
27549 kPa | 1454.9
27579 kPa | 1455
27618 kPa | 1455.2
27658 kPa | 1455.4
27685 kPa | 1455.4
27721 kPa | 1455.7
27748 kPa | 1455.7
27786 kPa | 1455.9
27821 kPa | 1456
27852 kPa | 1456
27887 kPa | 1456.3
27918 kPa | 1456.3
27943 kPa | 1456.5
27982 kPa | 1456.6
28017 kPa | 1456.8
28049 kPa | 1456.7
28080 kPa | 1457
28115 kPa | 1457.1
28148 kPa | 1457.2
28180 kPa | 1457.4
28217 kPa | 1457.6
28245 kPa | 1457.7
28276 kPa | 1457.9
28309 kPa | 1457.9
28337 kPa | 1458
28375 kPa | 1458.1
28403 kPa | 1458.3
28445 kPa | 1458.5
28474 kPa | 1458.6
28506 kPa | 1458.7
28534 kPa | 1458.7
28571 kPa | 1459
28603 kPa | 1459.1
28633 kPa | 1459.2
28660 kPa | 1459.4
28691 kPa | 1459.5
28718 kPa | 1459.6
28763 kPa | 1459.8
28799 kPa | 1459.9
28837 kPa | 1459.9
28870 kPa | 1460.1
28904 kPa | 1460.2
28935 kPa | 1460.4
28970 kPa | 1460.5
28997 kPa | 1460.6
29033 kPa | 1460.8
29063 kPa | 1460.9
29088 kPa | 1460.9
29121 kPa | 1461.1
29162 kPa | 1461.2
29188 kPa | 1461.4
29756 kPa | 1463.5
29784 kPa | 1463.7
29822 kPa | 1463.8
29860 kPa | 1464
29886 kPa | 1464
29919 kPa | 1464.2
29949 kPa | 1464.3
30616 kPa | 1466.8
30653 kPa | 1467
30689 kPa | 1467.1
30736 kPa | 1467.2
30764 kPa | 1467.3
30805 kPa | 1467.5
